We go through 2 molecules from paper PMC6105845, “Nucleotide Prodrug Containing a Nonproteinogenic Amino Acid To Improve Oral Delivery of a Hepatitis C Virus Treatment” (Antimicrobial Agents and Chemotherapy, 2018).

Data set [1] concerns HCV GT1b replicon. Description: HCV GT1b replicon, transiently transfected Huh-1C cells. The data set is classed as cell-based, hepatitis C virus. To be noted: for EC50: Hepatitis C virus, GT1B, 72 h. The protocol: (§1) GT1a, GT1b, and GT2a are authentic subgenomic replicons of the indicated strain. Creation of these HCV replicons was reported previously ([7]).
(§2) RNA was transcribed in vitro using a MEGAscript […] kit (Ambion, Austin, TX) and transfected into Huh-Lunet and −1C cells using published methods ([21], [22]).
(§3) The EC50s, defined as the concentration at which there was a measured 50% decrease in HCV replicon level, were determined in replicon assay as previously described ([24]). Briefly, replicon cells were seeded into 96-well plates. Compounds were serially diluted in DMSO at 200× final concentrations and then added to the assay plate. Luciferase expression was quantified after 3 days of incubation using a commercial luciferase assay (Promega, Madison, WI). Data were analyzed using GraphPad Prism 6.0 (La Jolla, CA).
(§4) X represents log of compound concentration and Y represents replicon replication as the percentage of DMSO control. EC50s were calculated as an average from at least three independent experiments.

The nature of data set [2]: Metabolic stability in hepatic S9 fraction, rat. The data set is classed as in vitro ADME. The note with it: 2 μM. The protocol: (§5) Blood plasma and S9 stability was studied as described previously ([8]). In brief, the compounds were incubated at 2 μM in hamster, rat, dog, monkey, or human plasma samples for up to 4 h at 37°C. For S9 stability, the compounds were incubated at 2 μM in hamster, rat, dog, monkey, or human intestinal and hepatic S9 fractions for up to 90 min at 37°C in the presence of NADPH and uridine 5′-diphosphoglucuronic acid trisodium salt (UDPGA) (Sigma-Adrich). The samples were analyzed by liquid chromatography coupled to triple-quadrupole mass spectrometry (LC-MS/MS).
(§6) The data (analyte-to-internal standard peak area ratio) were plotted on a semilog scale and fitted using an exponential fit. The half-life (t1/2) was determined assuming first-order kinetics.

The subject of data set [3] is HCV GT1a, GT1b and GT2a replicons. Description: HCV replicons GT1a, GT1b, GT2a in Huh-1C cells, summary across genotypes. Type of data set: cell-based, hepatitis C virus. The method, then: as §1, §2, §3, §4
A general note: Replicon systems follow genome replication, usually without infectious particles.

In data set [4] the test system is chimeric HCV replicons GT2b, GT3a, GT4a, GT5a, GT6a. The data set can be described thus: Chimeric replicons with NS5b of GT2b, GT3a, GT4a, GT5a, GT6a in GT1b background, transiently transfected Huh-1C cells. Type of data set: cell-based, hepatitis C virus.
Data set [5] is described as follows: Metabolic stability in intestinal S9 fraction, hamster. Type of data set: in vitro ADME. The method, then: as §5, §6
In data set [6] the target is T1, CES1 (Homo sapiens, UniProt P23141).
T1 construct: purchased R&D Systems (Minneapolis, MN)
T1 sequence (P23141 18-567): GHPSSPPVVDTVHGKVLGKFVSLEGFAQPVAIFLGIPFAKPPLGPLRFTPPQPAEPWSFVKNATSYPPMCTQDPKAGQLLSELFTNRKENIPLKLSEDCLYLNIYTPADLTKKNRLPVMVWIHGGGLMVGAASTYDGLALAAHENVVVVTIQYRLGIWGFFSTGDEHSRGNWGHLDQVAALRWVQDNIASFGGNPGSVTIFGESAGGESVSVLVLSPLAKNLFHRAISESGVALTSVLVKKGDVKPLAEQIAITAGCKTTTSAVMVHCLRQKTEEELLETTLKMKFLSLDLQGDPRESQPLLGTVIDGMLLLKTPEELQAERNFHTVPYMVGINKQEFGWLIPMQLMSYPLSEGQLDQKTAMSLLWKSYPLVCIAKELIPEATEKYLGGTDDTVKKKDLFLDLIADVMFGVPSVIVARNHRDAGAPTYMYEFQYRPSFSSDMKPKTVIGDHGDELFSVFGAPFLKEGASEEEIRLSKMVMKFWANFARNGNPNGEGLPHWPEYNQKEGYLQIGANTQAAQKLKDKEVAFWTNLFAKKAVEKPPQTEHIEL
The data set can be described thus: Ester cleavage by CES1. Type of data set: biochemical. The protocol: Biochemical assays studying prodrug cleavage have been described previously ([8]). In brief, the cleavages of GS2 by CATA, CES1, CES2, and HINT1 were assessed in vitro. The reaction substrates and products were monitored over time by high-performance liquid chromatography (HPLC).

Data set [7] can be described thus: Metabolic stability in intestinal S9 fraction, human. The data set is classed as in vitro ADME. To be noted: for half-life at 2 μM: intestinal S9 fraction. The method, then:
as §5, §6

The nature of data set [8]: Metabolic stability in hepatic S9 fraction, hamster. Type of data set: in vitro ADME. To be noted: 2 μM. The protocol: as §5, §6
A short description of data set [9]: Metabolic stability in intestinal S9 fraction, rat. The data set is classed as in vitro ADME. The method, then: as §5, §6
Data set [10] can be described thus: Metabolic stability in hepatic S9 fraction, dog. Type of data set: in vitro ADME. To be noted: 2 μM. The protocol: as §5, §6
Data set [11] can be described thus: Caco-2 bidirectional permeability. The data set is classed as in vitro ADME. The note with it: human; for Papp A→B / Papp B→A / efflux ratio: at thermodynamic solubility limit in fed simulated intestinal fluid; for efflux ratio: read-out: Efflux ratio B→A/A→B. The method, then: Caco-2 cells between passage 43 and 71 were grown to confluence for ≥21 days on 12- or 24-well polyethylene terephthalate plates (BD Biosciences). The bidirectional permeability of compounds was tested as described previously ([8]). In brief, the donor well contained Hanks' balanced salt solution (HBSS), 10 mM HEPES (pH 6.5), and 15 mM glucose. The receiver well contained HBSS (pH 7.4) and 1% bovine serum albumin (BSA). The cells were dosed on the apical (A) or basolateral (B) side to determine forward (A to B) and reverse (B to A) permeability. Media from the donor and receiver wells were analyzed by LC-MS/MS.

Data set [12] can be described thus: Metabolic stability in hepatic S9 fraction, human. The data set is classed as in vitro ADME. To be noted: 2 μM. The method, then: as §5, §6
[13] abbreviates: CES1, GS-6620-containing diastereomeric mixture was used.

Usually half-life stands for the time needed for the level to fall by half in the phase considered. Read a low half-life as rapid decline. A word on the Papp A→B: it is the apparent permeability from the apical to the basolateral side of a cell layer. For orientation: Papp B→A means how fast a substance crosses the layer from the basolateral side. Turning to `CC(C)OC(=O)C(C)(C)N[P@](=O)(OC[C@H]1O[C@@](C#N)(c2ccc3c(N)ncnn23)[C@](C)(O)[C@@H]1O)Oc1ccccc1` [GS2], the “Fold (GS2/GS-6620)” value in data set [1] (EC50 ratio, GT1b, Huh-1C) is listed as 3.1. In addition, the EC50 in data set [1] was 110 ± 20 nM; in [4] (Hepatitis C virus, read-out: potency), 91 to 158 nM. In addition, the “Metabolic stability in hepatic S9 fraction, predicted hepatic extraction” value is reported as 86% in data set [2], 93% in [8], 42% in data set [10] and 87% in data set [12]. The “potency relative to the fast-eluting isomer (more potent)” value in [3] (GT1a, 1b, 2a, Huh-1C) is given as “approximately 4 fold”. In data set [3] (Huh-1C cells), the “activity relative to GS-6620, average across the three genotypes” value was no more than 3 fold. Also, the “relative potency to GS-6620” value in [4] (chimeric replicons GT2b-GT6a, Huh-1C) was no more than 2 fold. In addition, the values for the half-life at 2 μM in data set [5], in [7] and in data set [9] were 1.12 h, 9.5 h and 2.83 h, respectively. Also, the “Amidate ester cleavage, specific activity” value in data set [6] (setting [13]) was 91.0 pmol/min/µg. For the same molecule, the “CES1 hydrolysis more efficient than GS-6620” value in data set [6] (isopropyl ester cleavage) is recorded as 48 fold. Further, in data set [7], the “stability in human intestinal S9 greater than GS-6620” value was found to be 35 fold. The Papp A→B in data set [11] is 2.6 ×10⁻⁶ cm/s. This molecule also returned a Papp B→A in [11] of 6.7 ×10⁻⁶ cm/s. Moreover, the efflux ratio in data set [11] was 2.5. The same molecule gave a Papp A→B at 10 μM in data set [11] (tested at 10 μM) of 0.4 ×10⁻⁶ cm/s. In data set [11] (tested at 10 μM), this molecule showed a Papp B→A at 10 μM of 9.3 ×10⁻⁶ cm/s.

Molecule `CC(C)OC(=O)[C@H](C)N[P@](=O)(OC[C@H]1O[C@@](C#N)(c2ccc3c(N)ncnn23)[C@](C)(O)[C@@H]1OC(=O)C(C)C)Oc1ccccc1` [GS-6620, reference compound] showed an EC50 in data set [1] of 35 ± 15 nM. The “Metabolic stability in hepatic S9 fraction, predicted hepatic extraction” value in [2] is reported as 97%; in data set [8] it was 97%; in [10], 73%; in data set [12] it was 93%. The half-life at 2 μM in data set [5] is less than 0.0333 h; in data set [7] it was 0.283 h; in [9] it was 0.147 h. Besides, the “3′-Ester cleavage, specific activity” value in data set [6] (setting [13]) stood at 1.6 pmol/min/µg. Further, in data set [6] (setting [13]), the “Amidate ester cleavage, specific activity” value is 1.9 pmol/min/µg. In [11], this molecule yielded a Papp A→B of 1.8 ×10⁻⁶ cm/s. The same molecule returned a Papp B→A in data set [11] of 11 ×10⁻⁶ cm/s. Besides, in data set [11], the efflux ratio is 5.8.
